A short description of data set [1]: Pharmacological screening for 51 pharmacological parameters. In kind it is in vivo.
Data set [2] can be described thus: Acute oral toxicity (LD50, Litchfield and Wilcoxon). In kind it is in vivo. To be noted: in vivo, rat, suspension in 0.5% aqueous Tween 80, observation 14 days. Here is the method: (§1) The acute oral toxicity of the inventive compounds of Examples 18 and 23 was tested on, respectively, five male and female laboratory rats each having a weight of 200 ± 20g. The compounds tested were prepared as suspension in 0.5 %-aqueous Tween 80-solution. The observation time period was 14 days. The determination of the LD50 -values was carried out pursuant to the methods of Litchfield and Wilcoxon.

Data set [3] concerns normal lipemic CFY-rat. The data set can be described thus: Normolipemic test (serum cholesterol and triglycerides). The class given is in vivo. To be noted: 14 days; for Serum Cholesterol / Serum Triglycerides: 24 h after last administration; for Serum Triglycerides, Lowering % / Serum Cholesterol, Lowering %: vs control. Here is the method: (§2) In contrast therewith, the inventive compounds having the general formula (I) show based on the normal lipemic as well as the hypercholesteremic rat models, a distinct anti-lipemic and, in particular anti-cholesteremic effect. […] This activity loss of clofibrate on the hyperlipemic demands is also found a number of times in the literature. The antilipemic activity of the inventive compounds, as well as that of clofibrate as the reference substance, was determined on a normal lipemic CFY-rat during an examination time period of 14 days. During this time, the animals received a normal laboratory diet. (Spratt's No. 1).
(§3) After a 4-day acclimatization period the animals orally received the test compound as a suspension in 1% tragacanth-solution, or the vehicle alone (control group). The control-group consisted of 20 animals, while the test groups contained 10 animals. 24 hours after the last administration, blood samples were taken for determining the serum triglycerides and serum cholesterol level.

The test system of data set [4] is hypercholesteremic rat. Description: Hypercholesteremic test (serum cholesterol and triglycerides). The class given is in vivo. Conditions: for Serum Cholesterol / Serum Triglycerides: hypercholesteremic rat (2% cholesterol, 1% cholic acid diet); for Serum Cholesterol, Lowering % / Serum Triglycerides, Lowering %: hypercholesteremic rat, vs control. Here is the method:
as §2, §3
The hypercholesteremic test was carried out on the same animals and under the same examining conditions, as was carried out in the normal lipemic test. The animals received a normal laboratory diet (Spratt's No. 2), having added thereto 2% cholesterol and 1% cholic acid.

In data set [5] the test system is mouse. Description: Pharmacological screening, abdominal tone in the mouse. The class given is in vivo. To be noted: 100 mg/kg intraperitoneal.
Data set [6] concerns laboratory rats. The data set can be described thus: Acute oral toxicity (LD50, Litchfield and Wilcoxon). In kind it is in vivo. To be noted: rat, 14 days, Litchfield and Wilcoxon. Here is the method:
as §1

Data set [7] relates to laboratory rats. Conditions: Literature reference; 20160 min; cited from earlier work.
The conditions of data set [8]: in vivo; cited from earlier work.
Data set [9] deals with galactosamine-hepatitis-model. To be noted: Arzneimittel-Forschung 23, 56, 1973, cited from earlier work.

The values that follow come from patent publication US4073918A, “Phenoxyalkylcarboxylic acid amides of substituted thiazolidinecarboxylic acids and their utilization in medicaments” (Ludwig Merckle KG, priority 1974, dated 1978).

One may read the LD50 as the dose at which mortality reaches 50%. `CC(Oc1ccc(Cl)cc1)C(=O)N1C(C(=O)O)C(C)(C)SC1(C)C` (centres unmarked) [Example 18, 2,2,5,5-tetramethyl-3-2-(p-chlorophenoxy)propionyl!-thiazolidine-4-carboxylic acid]: in data set [1], the “side effects in pharmacological screening” value is recorded as “no special side effects were seen”. Also, in data set [2], the LD50 at 336 h was > 5000 mg/kg. Further, in data set [3] (100 mg/kg oral), the “Serum Cholesterol” value was 95.8 mg %; the “Serum Triglycerides” value was found to be 68.7 mg %; the “Serum Triglycerides, Lowering %” value is reported as 27.2%. Moreover, in [3] (300 mg/kg oral), the “Serum Cholesterol” value was determined as 95.3 mg %; the “Serum Triglycerides” value turned out to be 82.5 mg %; the “Serum Triglycerides, Lowering %” value is on record as 12.6%. Further, in [4] (100 mg/kg oral), the “Serum Cholesterol” value worked out at 412.9 mg %; the “Serum Triglycerides” value is on record as 71.4 mg %; the “Serum Cholesterol, Lowering %” value was 30.2%. Further, in data set [4] (300 mg/kg oral), the “Serum Cholesterol” value was 470.3 mg %; the “Serum Triglycerides” value is reported as 72.4 mg %; the “Serum Cholesterol, Lowering %” value turned out to be 20.5%. The abdominal tone result in [5] is listed as “a small reduction of the abdominal tone was observed”.

With `CC(C)(Oc1ccc(Cl)cc1)C(=O)NCC1NC(C(=O)O)C(C)(C)S1` (centres unmarked) [Example 17], in data set [1], the “side effects in pharmacological screening” value was “no special side effects were seen”. Further, in [3] (100 mg/kg oral), the “Serum Cholesterol” value is recorded as 81.8 mg %; the “Serum Triglycerides” value was determined as 77.3 mg %; the “Serum Cholesterol, Lowering %” value is listed as 12.8%; the “Serum Triglycerides, Lowering %” value turned out to be 11.2%. Moreover, in data set [3] (300 mg/kg oral), the “Serum Cholesterol” value is given as 81.5 mg %; the “Serum Triglycerides” value is recorded as 91.2 mg %; the “Serum Cholesterol, Lowering %” value is listed as 13.1%. Besides, in data set [4] (100 mg/kg oral), the “Serum Cholesterol” value was 353.8 mg %; the “Serum Triglycerides” value was 85.0 mg %; the “Serum Triglycerides, Lowering %” value was found to be 1.2%. In data set [4] (300 mg/kg oral), the “Serum Cholesterol” value is given as 296.1 mg %; the “Serum Triglycerides” value was 96.4 mg %; the “Serum Cholesterol, Lowering %” value was 7.2%.

For the compound `CC1(C)SC(C)(C)N(C(=O)COc2ccc(Cl)cc2)C1C(=O)O` (centres unmarked) [Example 20, 2,2,5,5-tetramethyl-3-(p-chlorophenoxyacetyl)-thiazolidine-4-carboxylic acid], in [3] (100 mg/kg oral), the “Serum Cholesterol” value is recorded as 87.8 mg %; the “Serum Triglycerides” value is reported as 67.6 mg %; the “Serum Triglycerides, Lowering %” value stood at 28.4%. Also, in data set [3] (300 mg/kg oral), the “Serum Cholesterol” value is recorded as 73.0 mg %; the “Serum Triglycerides” value is recorded as 66.0 mg %; the “Serum Cholesterol, Lowering %” value stood at 15.3%; the “Serum Triglycerides, Lowering %” value worked out at 30.1%. Further, in [4] (100 mg/kg oral), the “Serum Cholesterol” value came out at 503.9 mg %; the “Serum Triglycerides” value is recorded as 88.1 mg %; the “Serum Cholesterol, Lowering %” value stood at 14.8%. For the same compound, in [4] (300 mg/kg oral), the “Serum Cholesterol” value came out at 479.6 mg %; the “Serum Triglycerides” value is given as 92.2 mg %; the “Serum Cholesterol, Lowering %” value is recorded as 18.9%.

Consider `CC(C)(Oc1ccc(Cl)cc1)C(=O)NCC1SC(C)(C)C(C(=O)O)N1C(=O)COc1ccc(Cl)cc1` (centres unmarked) [Example 21, 2-2-(p-chlorophenoxy)-2-methyl-propionylamidomethyl!-5,5-dimethyl-3-(p-chlorophenoxyacetyl)-thilazolidine-4-carboxylic acid], for which the “side effects in pharmacological screening” value in data set [1] is given as “no special side effects were seen”. Further, in data set [3] (100 mg/kg oral), the “Serum Cholesterol” value is 89.4 mg %; the “Serum Triglycerides” value stood at 59.1 mg %; the “Serum Cholesterol, Lowering %” value is reported as 7.3%; the “Serum Triglycerides, Lowering %” value was 11.4%. For the same compound, in data set [3] (300 mg/kg oral), the “Serum Cholesterol” value is given as 90.8 mg %; the “Serum Triglycerides” value amounted to 72.4 mg %; the “Serum Cholesterol, Lowering %” value is listed as 5.9%. Besides, in data set [4] (100 mg/kg oral), the “Serum Cholesterol” value amounted to 501.2 mg %; the “Serum Triglycerides” value is recorded as 51.0 mg %; the “Serum Triglycerides, Lowering %” value came out at 5.9%. For the same compound, in [4] (300 mg/kg oral), the “Serum Cholesterol” value is 465.1 mg %; the “Serum Triglycerides” value stood at 41.3 mg %; the “Serum Triglycerides, Lowering %” value is recorded as 23.9%.

With `CC1(C)SC2(CCCCC2)N(C(=O)COc2ccc(Cl)cc2)C1C(=O)O` (centres unmarked) [Example 23], the “Effective limits (of LD50)” value in data set [6] was 3680 to 5130 mg/kg. In data set [2], this compound yielded an LD50 at 336 h of 4350 mg/kg.

Take `CCOC(=O)C(C)(C)Oc1ccc(Cl)cc1` [Clofibrate, 2-(p-chlorophenoxy)-2-methylpropionic acid ethyl ester, reference compound]: in [3] (300 mg/kg oral), the “Serum Cholesterol” value is 56.1 mg %; the “Serum Triglycerides” value worked out at 66.5 mg %; the “Serum Cholesterol, Lowering %” value came out at 27.0%; the “Serum Triglycerides, Lowering %” value worked out at 46.3%. For the same compound, the LD50 in data set [7] is on record as ~1200 mg/kg. For the same compound, the “activity on the hypercholesteremic models (in words)” value in data set [4] (hypercholesteremic models) is listed as “shows no more activity”. Besides, in data set [4] (300 mg/kg oral), the “Serum Cholesterol” value worked out at 347.9 mg %; the “Serum Triglycerides” value is reported as 75.6 mg %; the “Serum Cholesterol, Lowering %” value is on record as 3.0%; the “Serum Triglycerides, Lowering %” value is reported as 12.5%.

Turning to `CC(C)(Oc1ccc(Cl)cc1)C(=O)N1C(C(=O)O)C(C)(C)SC1(C)C` (centres unmarked) [Example 19], the “Serum Cholesterol” value in data set [3] (100 mg/kg oral) stood at 93.1 mg %; in [3] (300 mg/kg oral), 82.0 mg %; in [4] (100 mg/kg oral), 549.1 mg %; in [4] (300 mg/kg oral), 595.6 mg %. Also, the “Serum Triglycerides” value is on record as 75.2 mg % in data set [3] (100 mg/kg oral), 72.7 mg % in [3] (300 mg/kg oral), 65.9 mg % in [4] (100 mg/kg oral) and 66.0 mg % in data set [4] (300 mg/kg oral). Also, the “Serum Triglycerides, Lowering %” value is on record as 20.3% in data set [3] (100 mg/kg oral) and 23.0% in [3] (300 mg/kg oral). For the same compound, the “Serum Cholesterol, Lowering %” value came to 4.9% in data set [3] (300 mg/kg oral) and 7.1% in [4] (100 mg/kg oral).

With `CC(C)(S)[C@@H](N)C(=O)O` [D-penicillamine], in data set [8], the known side effects entry was “allergic reactions, leukopenia or gastrointestinal disturbances”. For the same compound, the “influence on lipid material exchange (in words)” value in data set [9] is “satisfactory influence on lipid material exchange”. Besides, in data set [9] (galactosamine-hepatitis-model), the “liver protective effect; release of SH-groups, stimulation of nucleic acids and protein synthesis (in words)” value is given as “These properties are also shown by D-penicillamine”.
